3 molecules from patent US11866720B2, “Transgenic or non-transgenic plants with mutated protoporphyrinogen oxidase having increased tolerance to herbicides” (priority 2013, dated 2024) can be followed below.

Test [1] relates to transgenic soybean expressing mutated PPO. Briefly: Soybean segregating T1 individuals, greenhouse spray test (injury 0-9). The test is classed as in vivo, Glycine max. Particulars: 1 week after treatment.
Test [2] has the same test system. The test is classed as in vivo, Glycine max. The following applies: T1 soybean, field, 3 days after treatment; for injury (1-5 point scale): benzoxazin 50 g ai/ha.

Structures are written as SMILES. Several values for one entry are separate records, joined by “and”; a condition that tells them apart may be missing. Equal entries are not always repeated. Where two headings read alike, the source gives them in different places.
Throughout, for injury (1-5 point scale): key: 1: no obvious damage (no phytotoxicity); 2: minor amount of leaf damage, plant will survive; 3: moderate amount of leaf damage, plant will survive; 4: severe amount of leaf damage, plant will survive; 5: no surviving plants - all plants dead/dying.

As for `C#CCN1C(=O)COc2cc(F)c(N3C(=O)C4=C(CCCC4)C3=O)cc21` [Flumioxazin, flumioxazin], the “injury (0-9 point scale)” value in test [1] (SDS10791 AmtuPPX2L R128A_F420I, Flumioxazin 150 g ai/ha) was 3 (5×) and 1 (3×); in test [1] (SDS-10642 AmtuPPX2L R128A_F420L, Flumioxazin 150 g ai/ha), 3 (3×) and 2 (2×) and 1 (2×) and 9; in test [1] (SDS-10648 AmtuPPX2L R128A_F420I, Flumioxazin 150 g ai/ha), 9 (5×) and 5 (3×); in test [1] (SDS-10652 AmtuPPX2L L397D_F420V, Flumioxazin 150 g ai/ha), 9 and 6 (3×) and 5 (2×) and 4 (2×); in test [1] (SDS-10787 AmtuPPX2L R128A_F420L, Flumioxazin 150 g ai/ha), 9 (2×) and 5 (4×) and 4 (2×); in test [1] (SDS-10985 AmtuPPX2L R128A_F420M, Flumioxazin 150 g ai/ha), 9 (3×) and 6 (2×) and 4 (2×) and 5. Besides, the “injury (0-9 point scale)” value in test [1] (SDS-10990 AmtuPPX2L R128A_F420M, Flumioxazin 150 g ai/ha) was 6 (5×) and 5 (2×) and 9; in test [1] (SDS-11034 AmtuPPX2L R128A_F420V, Flumioxazin 150 g ai/ha), 5 (3×) and 4 and 6 (2×) and 9 and 3; in test [1] (wild type, Flumioxazin 150 g ai/ha), 9.

Regarding `CCOc1cc(Oc2ccc(C(F)(F)F)cc2Cl)ccc1[N+](=O)[O-]` [Oxyfluorfen], the “injury (0-9 point scale)” value in test [1] (SDS10791 AmtuPPX2L R128A_F420I, Oxyfluorfen 600 g ai/ha) is 4 (3×) and 8 and 5 (3×) and 3; in test [1] (SDS10791 AmtuPPX2L R128A_F420I, Oxyfluorfen 1200 g ai/ha), 9 (2×) and 4 (2×) and 5 (4×); in test [1] (SDS-10642 AmtuPPX2L R128A_F420L, Oxyfluorfen 600 g ai/ha) it was 2 (3×) and 4 and 3 (3×) and 8; in test [1] (SDS-10648 AmtuPPX2L R128A_F420I, Oxyfluorfen 600 g ai/ha), 5 and 7 and 6 (2×) and 8 (2×) and 9 and 3; in test [1] (SDS-10648 AmtuPPX2L R128A_F420I, Oxyfluorfen 1200 g ai/ha), 5 (3×) and 9 (4×) and 4; in test [1] (SDS-10652 AmtuPPX2L L397D_F420V, Oxyfluorfen 600 g ai/ha), 4 (3×) and 5 and 6 (2×) and 9. Further, the “injury (0-9 point scale)” value in test [1] (SDS-10787 AmtuPPX2L R128A_F420L, Oxyfluorfen 600 g ai/ha) was 6 (3×) and 5 (2×) and 8; in test [1] (SDS-10985 AmtuPPX2L R128A_F420M, Oxyfluorfen 600 g ai/ha), 1 and 3 (3×) and 4 (3×) and 9; in test [1] (SDS-10985 AmtuPPX2L R128A_F420M, Oxyfluorfen 1200 g ai/ha) it was 5 (3×) and 4 (3×) and 8 (2×); in test [1] (SDS-10990 AmtuPPX2L R128A_F420M, Oxyfluorfen 600 g ai/ha), 4 (4×) and 8 and 3 and 9 and 5; in test [1] (SDS-10990 AmtuPPX2L R128A_F420M, Oxyfluorfen 1200 g ai/ha) it was 9 and 5 (5×) and 4 (2×); in test [1] (SDS-11034 AmtuPPX2L R128A_F420V, Oxyfluorfen 600 g ai/ha), 4 (3×) and 9 and 5 (3×). Moreover, in test [1] (wild type, Oxyfluorfen 600 g ai/ha), the “injury (0-9 point scale)” value is 8 (3×) and 7 (3×) and 9 (2×).

For `C1=Cc2ccccc2ON1` [benzoxazin], the “Injury rating (1-5 point scale)” value in test [2] (SDS-10562 LTM377-1 AmtuPPX2L_dG210, benzoxazin (50 gai/ha)) was found to be 3; in test [2] (SDS-10562 LTM377-1 AmtuPPX2L_dG210, benzoxazin (100 gai/ha)) it was 3; in test [2] (SDS-10566 LTM377-1 AmtuPPX2L_dG210, benzoxazin (50 gai/ha)), 3; in test [2] (SDS-10566 LTM377-1 AmtuPPX2L_dG210, benzoxazin (100 gai/ha)), 3; in test [2] (SDS-10656 LTM377-1 AmtuPPX2L_dG210, benzoxazin (50 gai/ha)) it was 4; in test [2] (SDS-10656 LTM377-1 AmtuPPX2L_dG210, benzoxazin (100 gai/ha)) it was 4. The “Injury rating (1-5 point scale)” value worked out at 2.5 in test [2] (SDS-10998 LTM387-1 AmtuPPX2L_R128A_F420V, benzoxazin (50 gai/ha)); 2.5 in test [2] (SDS-10998 LTM387-1 AmtuPPX2L_R128A_F420V, benzoxazin (100 gai/ha)); 2 in test [2] (SDS-11034 LTM387-1 AmtuPPX2L_R128A_F420V, benzoxazin (50 gai/ha)); 2 in test [2] (SDS-11034 LTM387-1 AmtuPPX2L_R128A_F420V, benzoxazin (100 gai/ha)); 2 in test [2] (SDS-11035 LTM387-1 AmtuPPX2L_R128A_F420V, benzoxazin (50 gai/ha)); 2 in test [2] (SDS-11035 LTM387-1 AmtuPPX2L_R128A_F420V, benzoxazin (100 gai/ha)). In addition, the “Injury rating (1-5 point scale)” value in test [2] (SDS-11105 LTM387-1 AmtuPPX2L_R128A_F420V, benzoxazin (50 gai/ha)) came to 3; in test [2] (SDS-11105 LTM387-1 AmtuPPX2L_R128A_F420V, benzoxazin (100 gai/ha)) it was 3; in test [2] (SDS-11110 LTM387-1 AmtuPPX2L_R128A_F420V, benzoxazin (50 gai/ha)), 3; in test [2] (SDS-11110 LTM387-1 AmtuPPX2L_R128A_F420V, benzoxazin (100 gai/ha)), 3; in test [2] (Wildtype Jake, benzoxazin (50 gai/ha)) it was 5; in test [2] (Wildtype Jake, benzoxazin (100 gai/ha)), 5. Moreover, the “injury (1-5 point scale)” value in test [2] (SDS-10648 AmtuPPX2L R128A_F420I) amounted to 3; in test [2] (SDS-10791 AmtuPPX2L R128A_F420I), 2; in test [2] (SDS-11014 AmtuPPX2L R128A_F420I), 2; in test [2] (SDS-11034 AmtuPPX2L L397D_F420V), 2; in test [2] (SDS-11035 AmtuPPX2L R128A_F420V) it was 2; in test [2] (SDS-11052 AmtuPPX2L R128A_F420M) it was 3. Moreover, in test [2] (wild type), the “injury (1-5 point scale)” value is 5.
